Test results: PubChem BioAssay (NCI)
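In this assay, cells in 96-well plates receive the compound at five concentrations for 48 hours. Endpoints are linearly interpolated between the surrounding concentrations. TGI: concentration producing complete growth inhibition.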

How the values were obtained:
Assay in all cases: NCI tumour cell line growth inhibition, 48 h
T-47D breast = tested on: T-47D breast
OVCAR-8 ovarian = tested on: OVCAR-8 ovarian
SNB-75 CNS = tested on: SNB-75 CNS
NCI/ADR-RES ovarian = tested on: NCI/ADR-RES ovarian
NCI-H226 lung = tested on: NCI-H226 lung
SF-268 CNS = tested on: SF-268 CNS
DU-145 prostate = tested on: DU-145 prostate
SK-MEL-2 melanoma = tested on: SK-MEL-2 melanoma
CCRF-CEM leukemia = tested on: CCRF-CEM leukemia
MDA-MB-231 breast = tested on: MDA-MB-231 breast
NCI-H522 lung = tested on: NCI-H522 lung
SK-OV-3 ovarian = tested on: SK-OV-3 ovarian
CAKI-1 renal = tested on: CAKI-1 renal

Row | Compound | TGI (T-47D breast) [µM] | TGI (OVCAR-8 ovarian) [µM] | TGI (SNB-75 CNS) [µM] | TGI (NCI/ADR-RES ovarian) [µM] | TGI (NCI-H226 lung) [µM] | TGI (SF-268 CNS) [µM] | TGI (DU-145 prostate) [µM] | TGI (SK-MEL-2 melanoma) [µM] | TGI (CCRF-CEM leukemia) [µM] | TGI (MDA-MB-231 breast) [µM] | TGI (NCI-H522 lung) [µM] | TGI (SK-OV-3 ovarian) [µM] | TGI (CAKI-1 renal) [µM]
1 | COC(=O)C1=NN2c3ccccc3CN([C@@H](C)c3ccccc3)C(=O)[C@@H]2[C@H]1c1ccccc1 | > 100 | > 100 | > 100 | > 100 | > 100 | > 100 | > 100 | > 100 | > 100 | > 100 | > 100 | > 100 | > 100
2 | O=Nc1c(O)cc(Nc2cccnc2)c2ccccc12 | > 100 | > 100 | > 100 | 65.1 | > 100 | 53.4 | > 100 | > 100 | 26.2 | 47.3 | 28 | > 100 | > 100
3 | CCCNC(=O)N(C)C(=O)N1N=C(c2ccccc2)C1c1ccccc1 (configuration not stated) | > 100 | > 100 | > 100 | > 100 | > 100 | – | > 100 | > 100 | 75.8 | > 100 | > 100 | > 100 | > 100
4 | CCCCOC(=O)c1cc(C(=CCC[C@H]2CC[C@@]3(C)[C@@H](CC[C@@H]4[C@@H]3CC[C@]3(C)[C@@H](C(C)CCCC(C)C)CC[C@@H]43)C2)c2cc(Cl)c(O)c(C(=O)OCCCC)c2)cc(Cl)c1O (some centres not stated) | > 50 | > 50 | > 50 | > 50 | > 50 | > 50 | > 50 | > 50 | > 50 | > 50 | – | – | > 50
5 | NC(=O)C(=CNC(=S)Nc1cccc(C(F)(F)F)c1)C(N)=O | > 100 | > 100 | > 100 | > 100 | > 100 | > 100 | > 100 | > 100 | > 100 | > 100 | – | > 100 | > 100
6 | CC[C@@]1(CCC(=O)NCCc2c[nH]c3ccccc23)CCC(=O)N2CCc3c([nH]c4ccccc34)[C@H]21 | > 100 | – | – | 33.4 | 77.8 | 30 | > 100 | 86.4 | > 100 | > 100 | 18.8 | > 100 | > 100
7 | O=c1oc2ccc([N+](=O)[O-])cc2cc1Br | > 100 | > 100 | – | > 100 | > 100 | > 100 | > 100 | > 100 | > 100 | > 100 | > 100 | – | > 100
8 | CCCCCCCCC/C=C1/CC(CO)(COC(=O)c2ccccc2)OC1=O (configuration not stated) | 25.1 | – | 22.1 | 28.8 | 22.9 | 29.8 | 25.5 | 32.4 | 28.7 | 26.3 | 26.6 | 36 | 24.8
9 | CC1(C)C2CCC(O)(C2)C1N (configuration not stated) | > 100 | > 100 | > 100 | > 100 | > 100 | > 100 | > 100 | > 100 | > 100 | > 100 | – | > 100 | > 100
10 | O=C1c2ccccc2C(=O)N1CC(CN1C(=O)c2ccccc2C1=O)(C(=O)OCc1ccccc1)C(=O)OCc1ccccc1 | > 100 | > 100 | > 100 | > 100 | > 100 | – | > 100 | > 100 | > 100 | > 100 | > 100 | > 100 | > 100
11 | c1ccc([P+](CCCCCC[P+](c2ccccc2)(c2ccccc2)c2ccccc2)(c2ccccc2)c2ccccc2)cc1 | > 100 | 71.2 | > 100 | > 100 | > 100 | > 100 | > 100 | – | > 100 | > 100 | > 100 | > 100 | > 100
12 | COC1=CC(=O)C2=C(C[C@@]3(C)C(=C2)C(CO)=CC[C@H]3O)C1=O | > 100 | 32.9 | – | 56.1 | 29.2 | 32.7 | > 100 | – | 38.4 | 13.2 | – | > 100 | > 100
13 | N#Cc1c(O)c2ccccc2[nH]c1=O | > 100 | > 100 | > 100 | > 100 | > 100 | – | > 100 | > 100 | > 100 | > 100 | > 100 | > 100 | > 100
14 | CCCCc1ccc(C#CC#Cc2ccc(CCCC)s2)s1 | > 100 | > 100 | > 100 | > 100 | > 100 | > 100 | > 100 | – | > 100 | > 100 | > 100 | > 100 | > 100
15 | O=C1/C(=C/c2ccc(Cl)cc2)CSC/C1=C\c1ccc(Cl)cc1 | 23.2 | 13.8 | – | > 100 | 5.59 | 22 | 24.8 | 37.8 | 63.9 | 27.2 | 15.2 | 16.5 | 11.8
